Experimental data: ChEMBL document CHEMBL1147768, “Novel histamine H3 receptor antagonists based on the 4-[(1H-imidazol-4-yl)methyl]piperidine scaffold” (Bioorg Med Chem Lett, 2006)

Tests used:
Histamine H3 receptor [1] = target: T1, Histamine H3 receptor (Cavia porcellus, UniProt Q9JI35); assay: Antagonist potency against histamine H3 receptor in an electrically stimulated guinea pig ileum; type: functional, tissue-based; details: read-out: pA2 (converted)
Histamine H3 receptor [2] = target: T1, Histamine H3 receptor; assay: Displacement of [3H]N-alpha-methylhistamine from histamine H3 receptor in guinea pig brain
Histamine H3 receptor [3] = target: Histamine H3 receptor (Homo sapiens, UniProt Q9Y5N1); assay: Displacement of [3H]N-alpha-methylhistamine from histamine H3 receptor in human brain
Histamine H1 receptor = Histamine H1 receptor (Cavia porcellus, UniProt P31389); assay: Displacement of [3H]N-alpha-methylhistamine from histamine H1 receptor in guinea pig brain
Cytochrome P450 2D6 = Cytochrome P450 2D6 (Homo sapiens, UniProt P10635); assay: Inhibition of CYP2D6 in human liver microsomes; type: ADME, Microsome
Sequence of Cytochrome P450 2D6 (P10635 whole entry): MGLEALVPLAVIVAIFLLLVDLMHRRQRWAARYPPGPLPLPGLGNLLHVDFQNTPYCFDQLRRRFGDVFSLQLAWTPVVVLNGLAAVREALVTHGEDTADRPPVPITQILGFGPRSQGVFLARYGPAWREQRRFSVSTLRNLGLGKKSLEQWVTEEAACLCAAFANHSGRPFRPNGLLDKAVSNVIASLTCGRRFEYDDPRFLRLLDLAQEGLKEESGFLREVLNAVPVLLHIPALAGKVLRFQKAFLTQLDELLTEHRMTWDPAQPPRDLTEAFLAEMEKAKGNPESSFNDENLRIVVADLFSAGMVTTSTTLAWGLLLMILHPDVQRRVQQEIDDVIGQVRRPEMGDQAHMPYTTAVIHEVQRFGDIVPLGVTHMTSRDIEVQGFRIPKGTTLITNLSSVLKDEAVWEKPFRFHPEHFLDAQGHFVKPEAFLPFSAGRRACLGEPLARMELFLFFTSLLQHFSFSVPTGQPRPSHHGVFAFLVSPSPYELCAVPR

Sequence of Histamine H3 receptor (Homo sapiens, UniProt Q9Y5N1) (Q9Y5N1 whole entry): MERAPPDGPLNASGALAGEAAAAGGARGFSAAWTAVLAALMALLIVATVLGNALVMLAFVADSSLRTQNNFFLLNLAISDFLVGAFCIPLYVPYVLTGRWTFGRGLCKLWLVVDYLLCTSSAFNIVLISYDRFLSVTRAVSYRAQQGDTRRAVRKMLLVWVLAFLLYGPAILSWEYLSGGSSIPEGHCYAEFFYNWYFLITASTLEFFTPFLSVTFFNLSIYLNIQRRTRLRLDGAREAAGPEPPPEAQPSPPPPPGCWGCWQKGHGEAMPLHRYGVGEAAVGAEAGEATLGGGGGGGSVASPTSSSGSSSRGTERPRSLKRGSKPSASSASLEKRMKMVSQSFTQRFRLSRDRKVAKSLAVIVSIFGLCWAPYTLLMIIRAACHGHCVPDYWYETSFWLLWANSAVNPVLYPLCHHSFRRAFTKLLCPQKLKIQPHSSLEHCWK
T1 sequence (Q9JI35 whole entry): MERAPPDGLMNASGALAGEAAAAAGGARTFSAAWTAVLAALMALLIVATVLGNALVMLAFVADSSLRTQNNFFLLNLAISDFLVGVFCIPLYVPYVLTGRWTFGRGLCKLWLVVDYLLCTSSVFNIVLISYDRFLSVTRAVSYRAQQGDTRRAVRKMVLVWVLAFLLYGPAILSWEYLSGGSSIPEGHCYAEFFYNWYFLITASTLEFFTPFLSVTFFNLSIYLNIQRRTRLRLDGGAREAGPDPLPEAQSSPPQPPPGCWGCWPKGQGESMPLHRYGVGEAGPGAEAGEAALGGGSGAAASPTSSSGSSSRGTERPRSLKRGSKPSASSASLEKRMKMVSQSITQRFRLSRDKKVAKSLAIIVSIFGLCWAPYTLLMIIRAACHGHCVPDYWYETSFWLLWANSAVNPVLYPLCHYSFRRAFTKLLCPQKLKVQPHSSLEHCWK
Sequence of Histamine H1 receptor (P31389 whole entry): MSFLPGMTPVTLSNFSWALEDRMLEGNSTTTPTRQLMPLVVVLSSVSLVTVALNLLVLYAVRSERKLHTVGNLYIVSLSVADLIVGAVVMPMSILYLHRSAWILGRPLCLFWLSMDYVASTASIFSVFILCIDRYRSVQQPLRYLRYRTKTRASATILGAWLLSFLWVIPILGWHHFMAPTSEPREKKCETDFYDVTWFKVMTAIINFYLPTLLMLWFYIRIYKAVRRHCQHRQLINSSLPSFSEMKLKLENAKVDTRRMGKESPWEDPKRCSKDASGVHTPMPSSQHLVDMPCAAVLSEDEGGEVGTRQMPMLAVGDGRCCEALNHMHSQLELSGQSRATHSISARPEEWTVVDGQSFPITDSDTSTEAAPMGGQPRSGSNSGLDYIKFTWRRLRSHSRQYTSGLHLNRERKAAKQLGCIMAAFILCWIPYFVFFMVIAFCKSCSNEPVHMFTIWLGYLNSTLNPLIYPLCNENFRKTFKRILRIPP

Kb (Histamine H3 receptor [1]) [nM] | Ki (Histamine H3 receptor [2]) [nM] | Compound | other results
2.51 | – | CCCCCCCN1CCC(Cc2cnc[nH]2)CC1 | –
– | 21 | O=C(CCN1CCC(Cc2c[nH]cn2)CC1)NCc1ccc(Cl)cc1 | –
0.158 | – | O=C(CCN1CCC(Cc2c[nH]cn2)CC1)Nc1cccc(Cl)c1 | Ki (Histamine H3 receptor [3]): 0.4 nM
15.8 | – | O=C(CCOc1ccccc1)N1CCC(Cc2cnc[nH]2)CC1 | –
– | 0.4 | c1nc(CC2CCNCC2)c[nH]1 [IMMEPIP] | –
– | 60 | CN(C(=O)CCN1CCC(Cc2cnc[nH]2)CC1)c1ccc(Cl)cc1 | –
– | 970 | O=C(CCC(=O)N1CCC(Cc2c[nH]cn2)CC1)Nc1ccc(Cl)cc1 | –
– | 44 | O/N=C/c1ccc(OCCCN2CCC(Cc3c[nH]cn3)CC2)cc1 | –
1.58 | 3 | COc1ccc(NC(=O)CCN2CCC(Cc3cnc[nH]3)CC2)cc1 | –
– | 13 | O=C(NCCCN1CCC(Cc2cnc[nH]2)CC1)c1ccc(Cl)cc1 | –
– | 625 | COC(=O)c1ccc(OCCC(=O)N2CCC(Cc3c[nH]cn3)CC2)cc1 | –
5.01 | – | c1ccc(OCCCN2CCC(Cc3c[nH]cn3)CC2)cc1 | –
0.0794 | – | O=C(CCN1CCC(Cc2c[nH]cn2)CC1)Nc1ccc(Cl)cc1 | Ki (Histamine H1 receptor): 290 nM; IC50 (Cytochrome P450 2D6): 40 nM; Ki (Histamine H3 receptor [3]): 1.7 nM
1.58 | 3 | COC(=O)c1ccc(NC(=O)CCN2CCC(Cc3cnc[nH]3)CC2)cc1 | –
3.98 | 2 | Clc1cccc(NCCCN2CCC(Cc3cnc[nH]3)CC2)c1 | –
– | 170 | O=S(=O)(CCN1CCC(Cc2c[nH]cn2)CC1)Nc1ccc(Cl)cc1 | –
12.6 | 2 | Clc1cccc(OCCCN2CCC(Cc3cnc[nH]3)CC2)c1 | –
1.58 | 6 | Clc1ccc(CCCCN2CCC(Cc3cnc[nH]3)CC2)cc1 | –
6.31 | 5 | c1ccc(CCCCN2CCC(Cc3cnc[nH]3)CC2)cc1 | –
15.8 | 9 | O=C(CCCc1ccccc1)N1CCC(Cc2cnc[nH]2)CC1 | –
12.6 | 9 | O=C(NCCN1CCC(Cc2cnc[nH]2)CC1)c1ccc(Cl)cc1 | –
1.26 | 2 | O=C(CCN1CCC(Cc2c[nH]cn2)CC1)Nc1ccccc1 | –
– | 40 | O=C(CCCCN1CCC(Cc2cnc[nH]2)CC1)Nc1ccc(Cl)cc1 | –
0.126 | 0.2 | O=C(CCN1CCC(Cc2c[nH]cn2)CC1)Nc1cccc(F)c1 | IC50 (Cytochrome P450 2D6): 100 nM; Ki (Histamine H3 receptor [3]): 1.9 nM
5.01 | 17 | O=C(CCCN1CCC(Cc2cnc[nH]2)CC1)Nc1ccc(Cl)cc1 | –
39.8 | 18 | CCCCCCC(=O)N1CCC(Cc2c[nH]cn2)CC1 | –
– | 20 | N#Cc1ccc(OCCCN2CCC(Cc3c[nH]cn3)CC2)cc1 | –
6.31 | 3 | O=C(CCN1CCC(Cc2cnc[nH]2)CC1)NC1CCCCC1 | –
79.4 | 25 | O=S(=O)(CCCN1CCC(Cc2c[nH]cn2)CC1)c1ccccc1 | –
